Data published in patent US7704995B2 (Exelixis, Inc., priority 2003, dated 2010).

molecular target: T1, Chk1 (Homo sapiens, UniProt O14757); assay: Chk1 kinase assay: incorporation of γ-33P ATP into immobilized myelin basic protein; assay type: biochemical; settings: Table 11, Chk1 only; class symbols A-D; read-out: Chk1 IC50
T1 construct: purchased Upstate Biotechnology
T1 sequence (O14757 1-476): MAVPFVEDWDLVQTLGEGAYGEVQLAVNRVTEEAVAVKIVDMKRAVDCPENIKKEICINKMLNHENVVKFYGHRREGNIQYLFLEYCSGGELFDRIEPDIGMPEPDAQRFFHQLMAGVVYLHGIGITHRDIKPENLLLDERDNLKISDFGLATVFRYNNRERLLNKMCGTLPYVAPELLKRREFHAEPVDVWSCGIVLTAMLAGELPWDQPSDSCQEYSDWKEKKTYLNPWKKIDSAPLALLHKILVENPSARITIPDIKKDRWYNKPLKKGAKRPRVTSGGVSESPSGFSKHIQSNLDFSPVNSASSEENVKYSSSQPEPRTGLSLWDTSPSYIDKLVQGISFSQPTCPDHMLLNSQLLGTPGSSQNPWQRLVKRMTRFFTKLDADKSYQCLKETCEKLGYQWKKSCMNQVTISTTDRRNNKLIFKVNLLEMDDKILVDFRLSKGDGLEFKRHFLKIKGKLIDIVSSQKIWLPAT
Experimental: Chk1 and Chk2 assays were performed by measuring incorporation of γ-^33P ATP into immobilized myelin basic protein (MBP). High binding white 384 well plates (Greiner) were coated with MBP (Sigma #M-1891) by incubation of 60 ul/well of 20 μg/ml MBP in Tris-buffered saline (TBS; 50 mM Tris pH 8.0, 138 mM NaCl, 2.7 mM KCl) for 24 hours at 4° C. Plates were washed 3× with 100 μl TBS. Kinase reactions were carried out in a total volume of 34 μl in kinase buffer (5 mM Hepes pH 7.6, 15 mM NaCl, 0.01% bovine gamma globulin (Sigma #I-5506), 10 mM MgCl2, 1 mM DTT, 0.02% TritonX-100). Compound dilutions were performed in DMSO and added to assay wells to a final DMSO concentration of 1%. Each data point was measured in duplicate, and at least two duplicate assays were performed for each individual compound determination. Chk1 and Chk2 enzymes (Upstate Biotechnology) were added to final concentrations of 10 nM (Chk1) or 20 nM (Chk2). A mixture of unlabeled ATP and γ-^33P ATP was added to start the reaction (2×10^6 cpm of γ-^33P ATP per well (3000 Ci/mmole) and either 10 μM or 30 μM unlabeled ATP (for Chk1 and Chk2 assays respectively). The reaction was carried out for 1 hour at room temperature with shaking. Plates were washed 7× with TBS, followed by the addition of 50 μl/well scintillation fluid (Wallac). Plates were read using a Wallac Trilux counter. This is only one format of such assays, various other formats are possible, as known to those skilled in the art.
The above assay procedure can be used to determine the IC50 for inhibition and/or the inhibition constant Ki. The IC50 is defined as the concentration of compound required to reduce the enzyme activity by 50% under the conditions of the assay. […] The Ki for a compound may be determined from the IC50 based on three assumptions. First, only one compound molecule binds to the enzyme and there is no cooperativity. […] Third, the enzymatic rate of the enzyme-inhibitor complex is zero. The rate (i.e., compound concentration) data are fitted to the equation: […]

SMILES | IC50 [nM]
Cc1ccccc1CNC(=O)c1cccc(-c2cnc(N)c(C(=O)N[C@H]3CCCNC3)n2)c1 [Example 1035, 3-amino-6-[3-({[(2-methylphenyl)methyl]amino}carbonyl)phenyl]-N-[(3S)-piperidin-3-yl]pyrazine-2-carboxamide] | < 50
Nc1ncc(-c2cccc(C(=O)NCc3c(F)cccc3F)c2)nc1C(=O)N[C@H]1CCCCNC1 [Example 1022, 3-amino-N-[(3S)-azepan-3-yl]-6-[3-({[(2,6-difluorophenyl)methyl]amino}carbonyl)phenyl]pyrazine-2-carboxamide] | < 50
Nc1ncc(-c2cccc(CNC(=O)c3ccc4ccccc4c3)c2)nc1C(=O)N[C@H]1CCCNC1 [Example 893, 3-amino-6-(3-{[(naphthalen-2-ylcarbonyl)amino]methyl}phenyl)-N-[(3S)-piperidin-3-yl]pyrazine-2-carboxamide] | < 50

More lines, now with the values ahead:

IC50 [nM] | SMILES
< 50 | Nc1ncc(-c2cccc(CNC(=O)c3cncc(-c4cccs4)c3)c2)nc1C(=O)N[C@H]1CCCNC1 [Example 949, 3-amino-N-[(3S)-piperidin-3-yl]-6-{3-[({[5-(2-thienyl)pyridin-3-yl]carbonyl}amino)methyl]phenyl}pyrazine-2-carboxamide]
< 50 | Nc1ncc(-c2cccc(CN[C@@H]3c4ccccc4C[C@@H]3O)c2)nc1C(=O)N[C@H]1CCNC1 [Example 806, 3-amino-6-[3-({[(1R,2S)-2-hydroxy-2,3-dihydro-1H-inden-1-yl]amino}methyl)phenyl]-N-[(3S)-pyrrolidin-3-yl]pyrazine-2-carboxamide]
< 50 | Nc1ncc(-c2cccc(CNC(=O)c3ccccc3Cl)c2)nc1-c1nc([C@H]2CCCNC2)n[nH]1 [Example 940, N-{[3-(5-amino-6-{3-[(3S)-piperidin-3-yl]-1H-1,2,4-triazol-5-yl}pyrazin-2-yl)phenyl]methyl}-2-chlorobenzamide]

same assay, conditions: Table 11; Chk1 only; read-out: Chk1 IC50

SMILES | IC50 [nM]
CNC(=O)c1nc(-c2cccc(CNC3CCc4ccc(Br)cc43)c2)cnc1N (centres unmarked) [Example 501, 3-amino-6-(3-{[(6-bromo-2,3-dihydro-1H-inden-1-yl)amino]methyl}phenyl)-N-methylpyrazine-2-carboxamide] | 50 to 1000
CN(C)CCCNC(=O)c1nc(-c2cccc(CN[C@H]3CCc4ccccc43)c2)cnc1N [Example 585, 3-amino-6-(3-{[(1S)-2,3-dihydro-1H-inden-1-ylamino]methyl}phenyl)-N-[3-(dimethylamino)propyl]pyrazine-2-carboxamide] | 1000 to 10000
CC(C)(C)OC(=O)N1CCCC(NC(=O)c2nc(-c3cccc(C(=O)N[C@@H]4c5ccccc5C[C@@H]4O)c3)cnc2N)CC1 (stereo partly drawn) [Example 781, 1,1-dimethylethyl 4-[({3-amino-6-[3-({[(1R,2S)-2-hydroxy-2,3-dihydro-1H-inden-1-yl]amino}carbonyl)phenyl]pyrazin-2-yl}carbonyl)amino]azepane-1-carboxylate] | 50 to 1000
Nc1ncc(-c2cccc(C(=O)N[C@H]3CCc4ccccc43)c2)nc1C(=O)NC[C@H]1CCNC1 [Example 785, 3-amino-6-(3-{[(1S)-2,3-dihydro-1H-inden-1-ylamino]carbonyl}phenyl)-N-[(3S)-pyrrolidin-3-ylmethyl]pyrazine-2-carboxamide] | < 50
Nc1ncc(-c2cccc(CO)c2)nc1-c1nc(-c2cccs2)n[nH]1 [Example 583, (3-{5-amino-6-[3-(2-thienyl)-1H-1,2,4-triazol-5-yl]pyrazin-2-yl}phenyl)methanol] | 50 to 1000
Nc1ncc(-c2cccc(CO)c2)nc1-c1nnc(-c2ccco2)[nH]1 [Example 570, {3-[5-amino-6-(5-furan-2-yl-4H-1,2,4-triazol-3-yl)pyrazin-2-yl]phenyl}methanol] | 50 to 1000

Next, values leading:

IC50 [nM] | SMILES
50 to 1000 | Nc1cc(-c2n[nH]c(-c3nc(-c4cccc(CO)c4)cnc3N)n2)ccn1 [Example 798, (3-{5-amino-6-[3-(2-aminopyridin-4-yl)-1H-1,2,4-triazol-5-yl]pyrazin-2-yl}phenyl)methanol]
50 to 1000 | CNC(=O)c1nc(-c2cccc(C(=O)NNc3c(F)c(F)c(C)c(F)c3F)c2)cnc1N [Example 431, 3-amino-N-methyl-6-(3-{[2-(2,3,5,6-tetrafluoro-4-methylphenyl)hydrazino]carbonyl}phenyl)pyrazine-2-carboxamide]
50 to 1000 | Nc1ncc(-c2cccc(CN[C@H]3CCc4ccccc43)c2)nc1-c1nc(C2CCNCC2)n[nH]1 [Example 639, 5-(3-{[(1S)-2,3-dihydro-1H-inden-1-ylamino]methyl}phenyl)-3-(3-piperidin-4-yl-1H-1,2,4-triazol-5-yl)pyrazin-2-amine]
≥ 10000 | Cn1nc(-c2nc(-c3cccc(C(=O)NCc4ccccc4)c3)cnc2N)nc1C1CCCCN1 (centres unmarked) [Example 701, 3-[5-amino-6-(1-methyl-5-piperidin-2-yl-1H-1,2,4-triazol-3-yl)pyrazin-2-yl]-N-(phenylmethyl)benzamide]
50 to 1000 | COc1ccc(CNC(=O)c2cccc(-c3cnc(N)c(C(=O)N[C@H]4CCN(C(=O)OC(C)(C)C)C4)n3)c2)cc1 [Example 738, 1,1-dimethylethyl (3S)-3-{[(3-amino-6-{3-[({[4-(methyloxy)phenyl]methyl}amino)carbonyl]phenyl}pyrazin-2-yl)carbonyl]amino}pyrrolidine-1-carboxylate]
50 to 1000 | CNC(=O)c1nc(-c2cccc(CNC3CC(C)c4c(F)ccc(F)c43)c2)cnc1N (centres unmarked) [Example 459, 3-amino-6-(3-{[(4,7-difluoro-3-methyl-2,3-dihydro-1H-inden-1-yl)amino]methyl}phenyl)-N-methylpyrazine-2-carboxamide]

same assay, conditions: read-out: Chk1 IC50

SMILES | IC50 [nM]
CNC(=O)c1nc(-c2cccc(C(=O)NCc3ccc(C)c(C)c3)c2)cnc1N [Example 286, 3-amino-6-[3-({[(3,4-dimethylphenyl)methyl]amino}carbonyl)phenyl]-N-methylpyrazine-2-carboxamide] | 50 to 1000
CNC(=O)c1nc(-c2cccc(C(=O)NCc3ccc4ccccc4c3)c2)cnc1N [Example 169, 3-amino-N-methyl-6-(3-{[(naphthalen-2-ylmethyl)amino]carbonyl}phenyl)pyrazine-2-carboxamide] | 50 to 1000
CNC(=O)c1nc(-c2cccc(C(=O)NCc3ccc(Cl)cc3)c2)cnc1N [Example 98, 3-amino-6-[3-({[(4-chlorophenyl)methyl]amino}carbonyl)phenyl]-N-methylpyrazine-2-carboxamide] | 50 to 1000

Second part, the compound after the results:

IC50 [nM] | SMILES
50 to 1000 | CNC(=O)c1nc(-c2cccc(C(=O)N[C@@H]3CCN(Cc4ccc(Cl)cc4)C3)c2)cnc1NCc1ccc(Cl)cc1 [Example 359, 3-{[(4-chlorophenyl)methyl]amino}-6-{3-[({(3R)-1-[(4-chlorophenyl)methyl]pyrrolidin-3-yl}amino)carbonyl]phenyl}-N-methylpyrazine-2-carboxamide]
50 to 1000 | CNC(=O)c1nc(-c2cccc(C(=O)NCc3ccc(OC)c(OC)c3)c2)cnc1N [Example 371, 3-amino-6-{3-[({[3,4-bis(methyloxy)phenyl]methyl}amino)carbonyl]phenyl}-N-methylpyrazine-2-carboxamide]
50 to 1000 | CNC(=O)c1nc(-c2cccc(CNC(=O)c3ccc(Cl)cc3)c2)cnc1N [Example 309, 3-amino-6-[3-({[(4-chlorophenyl)carbonyl]amino}methyl)phenyl]-N-methylpyrazine-2-carboxamide]
< 50 | CNC(=O)c1nc(-c2cccc(C(=O)NCc3ccc(I)cc3)c2)cnc1N [Example 302, 3-amino-6-[3-({[(4-iodophenyl)methyl]amino}carbonyl)phenyl]-N-methylpyrazine-2-carboxamide]
1000 to 10000 | CNC(=O)c1nc(-c2cccc(C(=O)N[C@@H]3CCCc4ccccc43)c2)cnc1N [Example 160, 3-amino-N-methyl-6-(3-{[(1R)-1,2,3,4-tetrahydronaphthalen-1-ylamino]carbonyl}phenyl)pyrazine-2-carboxamide]
